Laboratory results from patent US8324202B2, “5-phenyl-1H-benzo [E] [1,4] diazepine compounds substituted with an hydroxamic acid group as histone deacetylase inhibitors” (Universita Degli Studi di Firenze, priority 2007, dated 2012).

Tests used:
Format in all cases: cell-based, human
[1] = system: acetylated H3 histone; assay: Histone deacetylase inhibition: western blot for acetylated histone H3 in cells incubated 6 hours with drug; conditions: for Acetyl-H3 densitometric value: 6 hours, untreated = 1; for H3 histone acetylating activity, in words: summary in description
Procedure: (§1) The new described compounds were tested for their ability to inhibit the histone deacetylase activity by western blot for the acetylated isoforms of histone H3 and H4 and also to induce growth arrest in cancer cells by activating apoptosis and/or cell differentiation. Initially, biological activities of newly synthesized HDACi were assessed by using the human acute promyelocytic leukemia cell line NB4, as the experimental model. Cells were maintained in RPMI (Bio-Whittaker Europe, Verviers, Belgio) supplemented with 10% of fetal calf serum (FCS, Boehringer Mannheim, Germania) and 2 mM glutamine (Merck, Darmstadt, Germania) at 37° C. in a humidified atmosphere of 5% CO2. Cells were counted in a Burker chamber and cells viability was assessed by the trypan blu exclusion test.
(§2) Cells, obtained as described above, were harvested in sterile plates (Falcon, Becton Dickinson, Franklin Lakes, N.J.) at density of 6×10^5/mL, and incubated for 6 hours with increasing drug concentration of single compounds. Then, the cells were lysated with RIPA buffer (50 mM Tris-HCl pH 7.4, 150 mM NaCl, 1% Nonidet P-40, 1 mM EDTA plus protease inhibitor cocktail (Protease Inhibitor Cocktail Set III, n° cat. 539134, Calbiochem, Merck, Darmstadt, Germany) and sonicated (Labsonic 1510) twice for 15s pulses at 1-2 Watts in ice. Protein concentration of cell extracts was determined according to the bicinchoninic acid colorimetric method (BCA, Pierce, Rockford, USA) by using serum bovine albumin as the standard (BSA, Sigma, Steinheim, Germania). Equal amounts of protein (20-40 μg/20-30 μL/well) were separated on NuPAGE Bis-Tris 12% gel (Novex, Invitrogen, Carlsbad, Calif.) 10% and transferred to nitrocellulose membranes (Pro-Bind, pore diameter=0.45 μm; Amersham Pharmacia). Then membranes, incubated in phosphate buffer saline (PBS) with 6% defatted dry milk as blocking solution to saturate unspecific binding sites, were probed overnight at 4° C. with primary antibodies (1;1000 dilution in PBS) raised against acetylated H4 a H3 histone isoforms (Upstate Technologies, Lake Placid, N.Y., USA). […] The experiment was performed with the compound (II) S form, where R1 and R2 can be independently a methyl group or hydrogen.

[2] = system: acetylated H4 histone; assay: Histone deacetylase inhibition: western blot for acetylated histone H4 in cells incubated 6 hours with drug; conditions: for Acetyl-H4 densitometric value: 6 hours, untreated = 0; for H4 histone acetylating activity, in words: summary in description
Procedure: as §1, §2

[3] = system: NB4 cells; assay: Cytostatic and apoptotic activity, Annexin-V-FLUOS/propidium iodide flow cytometry, 48 hours; conditions: for IC50: Homo sapiens, NB-4, 48 hours, graphic extrapolation of Annexin-V results, viable cells over control, read-out: IC50 (drug concentration reducing cell density or viability by 50%); for apoptotic activity, in words: leukemic cells, summary in description
Procedure: as §1
Cells, were initially harvested at 4×10^5/mL (3 mL/well) cell density 24 well plate and incubated for 48 hours with increasing drug concentration. All compounds were solubilized in DMSO so that the final concentration of vehicle in culture was lower than 0.1%. At the end of treatment cell viability and apoptosis were evaluated by cytofluorimetric analysis using Anexin-V-Fluos staining (Annexin-V-FLUOS Staining Kit, Roche Molecular Biochemicals, Mannheim, Germany).
Necrotic cells, which are also Annexin-V positive, were identified by using Propidium iodide fluorochrome, that is capable of penetrating cell membranes of dying or dead cells and binding DNA.
Briefly, aliquots of cell suspensions (approximately 10^5 cells) washed in buffer PBS, were resuspended in 5 μl of binding buffer containing annexin V-fluorescein isothiocyanate (FITC) and propidium iodide; incubation was carried out for 15 minutes at room temperature, and cells were then analyzed by flow cytometry (FACScan Becton-Dickinson, San Jose, Calif.).
The IC50 values (i.e. the drug concentration necessary to reduce cell density or viability by 50% as compared to untreated control cultures) obtained by graphic extrapolation of the Anexin-V results and expressed as percentage of viable cells over control were reported In Table 2.
Data represent the percentage of viable cells as the function of drug concentration.

[4] = system: NB4 cells; assay: Granulocytic differentiation, NBT reduction assay, alone or with ATRA; conditions: three days
Procedure: The analysis of functional myeloid differentiation induced by compounds of the invention was accomplished by Nitro-Blu tetrazolium (NBT) reduction assay as described below. Cell suspension (approximately 10^5/mL) were incubated in the presence of 0.25 mg/mL NBT and 500 ng of PMA (Phorbol-12-Myristate 13-acetate) (Sigma) at 37° C. for 30 minutes. Granulocyte or monocyte differentiated cell were capable of reducing NBT to dark formazan precipitate (blu positive cells). NBT positive cells were counted on Burker chamber and expressed as percentage of total cell population.
(§3) • Compounds (II) in racemic form and enantiomers S or R. • Compounds (III) in racemic form and enantiomers S or R. • Compounds (II) with R1 and R2=hydrogen were tested for their capability to synergize with ATRA and for their ability to induce granulocyte differentiation in the human promyelocytic cell line NB4. ATRA at the final concentration of 1 μM is usually employed to induce granulocyte differentiation in NB4 cells.
(§4) NB4 cells were incubated for three days in presence of the compounds listed above, alone or in combination with ATRA. Granulocyte differentiation of leukemic cells was determined by (a) Nitro-Blu tetrazolium (NBT) reduction to dark formazan precipitate (blu positive cells) counting NBT positive cells on Burker chamber and (b) cytofluorimetric analysis of CD11b membrane expression (granulocyte marker, see example 32).

[5] = system: NB4 cells; assay: Granulocytic differentiation, cytofluorimetric analysis of CD11b membrane expression, alone or with ATRA; conditions: for % of CD11b+ cells: three days; for effect on CD11b positive cells, in words: alone or in combination with 20 nM ATRA
Procedure: Identification of markers of myeloid maturation was determined by flow cytometry by labelling cells with PE-conjugated antibody and FITC-conjugated antibody to CD11b (granulocyte marker) and CD14 (monocyte marker) respectively (Becton-Dickinson). Cell suspension aliquots (1×10^5 cells) were washed with cell wash buffer (Becton-Dickinson) and incubated with antibodies for 30 minutes in ice. After the incubation cells, resuspended in 0.3 mL of buffer containing Actinomycin D (Becton-Dickinson) to evaluate cell viability, were submitted to the cytofluorimetric analysis (FACScan, Becton-Dickinson). Cells incubated with appropriately labeled isotype controls were used to gate nonspecific fluorescence signal.
as §3, §4

[6] = system: NB4 cells; assay: Morphologic evaluation of apoptosis, May-Grünwald-Giemsa stained cytosmears; conditions: FIG. 1 panel C, magnification ×650
Procedure: Cells were fixed with acid acetic/methanol (⅓, v/v), then 20 μL of fixed cell suspension were placed on glass slide and let dry for 24 h. The cytosmears were stained with May-Grünwald-Giemsa and apoptotic cells were identified according to the typical morphologic parameters such as nuclear fragmentation, reduction of cell volume and apoptotic bodies. Image analyses were obtained by using a Nikon Eclipse 50i microscope equipped with a Nikon Digital Sight DS -5M (Nikon Corporation, Tokyo, Japan).

Compound	Acetyl-H3 densitometric value ([1]; 0.5 μM)	Acetyl-H3 densitometric value ([1]; 1 μM)	Acetyl-H3 densitometric value ([1]; 2.5 μM)	Acetyl-H4 densitometric value ([2]; 0.5 μM)	Acetyl-H4 densitometric value ([2]; 1 μM)	Acetyl-H4 densitometric value ([2]; 2.5 μM)	H4 histone acetylating activity, in words [2]	IC50 [3]	apoptotic activity, in words [3]	% of NBT+ cells ([4]; 1.5 μM compound + 20 nM ATRA)	% of NBT+ cells ([4]; 1.5 μM compound alone)	% of NBT+ cells ([4]; 3 μM compound + 20 nM ATRA)	% of NBT+ cells ([4]; 3 μM compound alone)	% of CD11b+ cells ([5]; 1.5 μM compound + 20 nM ATRA)	% of CD11b+ cells ([5]; 1.5 μM compound alone)	% of CD11b+ cells ([5]; 3 μM compound + 20 nM ATRA)	% of CD11b+ cells ([5]; 3 μM compound alone)	effect on CD11b positive cells, in words [5]	H3 histone acetylating activity, in words [1]	also measured
CN1C(=O)CN=C(c2ccccc2)c2cc(C#CCCCC(=O)NO)ccc21 [Compound (II) R1 and R2 = hydrogen, 6-(1-methyl-2-oxo-5-phenyl-2,3-dihydro-1H-benzo[e][1,4]diazepin-7-yl)-N-hydroxyhex-5-ynamide]	2.26 arbitrary units	2.41 arbitrary units	2.836 arbitrary units	1.3 arbitrary units	1.8 arbitrary units	4 arbitrary units	good H4 histone acetylating activity	4.9 µM	excellent apoptotic activity	45%	2%	80%	3%	74.3%	44%	94.7%	69.3%	significant and dose-dependent increase in the amount of CD11b positive cells		
C[C@@H]1N=C(c2ccccc2)c2cc(C#CCCCC(=O)NO)ccc2N(C)C1=O [Compound (II) S form with R1 or R2 = Me, (S)-6-(1,3-dimethyl-2-oxo-5-phenyl-2,3-dihydro-1H-benzo[e][1,4]diazepin-7-yl)-N-hydroxyhex-5-ynamide]	2.88 arbitrary units	3.85 arbitrary units	5.23 arbitrary units	1 arbitrary units	1.33 arbitrary units	12.96 arbitrary units	facilitating, in its enantiomerically pure (S) form, H4 histone acetylation	1.7 µM		41%	≦1%			62.3%	36.3%				good activity to induce H3 histone acetylation in a dose-dependent way	morphology of treated cells (apoptosis) [6]: massive nuclear fragmentation suggestive of a typical apoptotic process
C[C@H]1N=C(c2ccccc2)c2cc(NC(=O)CCCCCCC(=O)NO)ccc2N(C)C1=O [Compound (III) R form with R1 or R2 = Me, (R)—N1-(1,3-dimethyl-2-oxo-5-phenyl-2,3-dihydro-1H-benzo[e][1,4]diazepin-7-yl)-N8-hydroxyoctanediamide]		4.46 arbitrary units			17.78 arbitrary units		excellent H4 histone acetylating activity	3.7 µM	high apoptotic activity			70%	3%			80%	39.3%	augmented the percentage of CD11b positive cells	good H3 histone acetylating activity	Acetyl-H3 densitometric value ([1]; 2 μM): 6.85 arbitrary units; Acetyl-H3 densitometric value ([1]; 5 μM): 7.27 arbitrary units; Acetyl-H4 densitometric value ([2]; 2 μM): 29.63 arbitrary units; Acetyl-H4 densitometric value ([2]; 5 μM): 34.07 arbitrary units
